Laboratory results reported in PubChem BioAssay (NCI).
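Where inhibition never reached the appropriate level, the endpoint shown equals the highest concentration tested. Otherwise, values were interpolated linearly from a five-concentration, 48-hour dose response in 96-well plates. The concentration for full growth arrest is given as TGI.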

Experiments:
Assay in all cases: NCI-60 cell line screen, 48 h
[1] = system: TK-10 renal
[2] = system: HOP-62 NSCLC
[3] = system: SF-295 CNS
[4] = system: OVCAR-5 ovarian
[5] = system: KM12 colon
[6] = system: 786-0 renal
[7] = system: U251 CNS
[8] = system: IGROV1 ovarian
[9] = system: PC-3 prostate
[10] = system: CCRF-CEM leukemia
[11] = system: HCT-15 colon
[12] = system: UACC-257 melanoma
[13] = system: K-562 leukemia
[14] = system: SR leukemia
[15] = system: NCI-H23 lung
[16] = system: HL-60(TB) leukemia
[17] = system: MDA-MB-435
[18] = system: SNB-19 CNS
[19] = system: SN12C renal
[20] = system: RXF 393 renal
[21] = system: HS 578T breast
[22] = system: HCT-116 colon
[23] = system: A498 renal
[24] = system: M14 melanoma
[25] = system: UACC-62 melanoma
[26] = system: SW-620 colon
[27] = system: ACHN renal
[28] = system: SF-539 CNS
[29] = system: HCC-2998 colon
[30] = system: OVCAR-4 ovarian
[31] = system: MOLT-4 leukemia
[32] = system: MDA-N
[33] = system: A549 NSCLC
[34] = system: LOX IMVI melanoma
[35] = system: HT29 colon
[36] = system: CAKI-1 renal
[37] = system: MCF7 breast
[38] = system: COLO 205 colon
[39] = system: NCI-H226 lung
[40] = system: MALME-3M melanoma
[41] = system: SK-OV-3 ovarian
[42] = system: SK-MEL-28 melanoma
[43] = system: NCI/ADR-RES ovarian
[44] = system: UO-31 renal
[45] = system: MDA-MB-231 breast
[46] = system: OVCAR-3 ovarian
[47] = system: NCI-H460 lung
[48] = system: SK-MEL-5 melanoma
[49] = system: SK-MEL-2 melanoma
[50] = system: HOP-92 NSCLC
[51] = system: OVCAR-8 ovarian
[52] = system: BT-549 breast
[53] = system: EKVX NSCLC
[54] = system: SNB-75 CNS
[55] = system: NCI-H522 lung
[56] = system: DU-145 prostate
[57] = system: RPMI-8226 leukemia

SMILES: Nc1ccc2c(c1)Cc1ccccc1-2
- TGI [1]: > 100 µM
- TGI [2]: > 100 µM
- TGI [3]: > 100 µM
- TGI [4]: > 100 µM
- TGI [5]: > 100 µM
- TGI [6]: > 100 µM
- TGI [7]: > 100 µM
- TGI [8]: > 100 µM
- TGI [9]: > 100 µM
- TGI [10]: > 100 µM
- TGI [11]: > 100 µM
- TGI [12]: > 100 µM
- TGI [13]: > 100 µM
- TGI [14]: > 100 µM
- TGI [15]: > 100 µM
- TGI [16]: > 100 µM
- TGI [17]: > 100 µM
- TGI [18]: > 100 µM
- TGI [19]: > 100 µM
- TGI [20]: > 100 µM
- TGI [21]: > 100 µM
- TGI [22]: > 100 µM
- TGI [23]: > 100 µM
- TGI [24]: > 100 µM
- TGI [25]: > 100 µM
- TGI [26]: > 100 µM
- TGI [27]: > 100 µM
- TGI [28]: > 100 µM
- TGI [29]: > 100 µM
- TGI [30]: > 100 µM
- TGI [31]: > 100 µM
- TGI [32]: > 100 µM
- TGI [33]: > 100 µM
- TGI [34]: > 100 µM
- TGI [35]: > 100 µM
- TGI [36]: > 100 µM
- TGI [37]: > 100 µM
- TGI [38]: > 100 µM
- TGI [39]: > 100 µM
- TGI [40]: > 100 µM
- TGI [41]: > 100 µM
- TGI [42]: > 100 µM
- TGI [43]: > 100 µM
- TGI [44]: > 100 µM
- TGI [45]: > 100 µM
- TGI [46]: > 100 µM
- TGI [47]: > 100 µM
- TGI [48]: > 100 µM
- TGI [49]: > 100 µM
- TGI [50]: > 100 µM
- TGI [51]: > 100 µM
- TGI [52]: > 100 µM
- TGI [53]: > 100 µM
- TGI [54]: 94.3 µM

SMILES: CCOc1ccc2nc3cc(N=Nc4ccc(N)nc4N)ccc3c(N)c2c1
- TGI [1]: 28.6 µM
- TGI [2]: > 100 µM
- TGI [3]: 63.4 µM
- TGI [4]: 41.7 µM
- TGI [5]: > 100 µM
- TGI [7]: 1.93 µM
- TGI [8]: > 69.6 µM
- TGI [9]: 13.5 µM
- TGI [11]: > 100 µM
- TGI [12]: 57.1 µM
- TGI [13]: 1.67 µM
- TGI [15]: 21.9 µM
- TGI [16]: 10.1 µM
- TGI [55]: 8.71 µM
- TGI [17]: > 100 µM
- TGI [18]: 3.08 µM
- TGI [19]: 6.38 µM
- TGI [20]: 10 µM
- TGI [21]: 15.2 µM
- TGI [56]: 26.8 µM
- TGI [57]: 61.6 µM
- TGI [22]: 7.8 µM
- TGI [23]: 28.1 µM
- TGI [24]: 51.5 µM
- TGI [25]: 33.7 µM
- TGI [26]: > 34.9 µM
- TGI [27]: 33.9 µM
- TGI [28]: 4.11 µM
- TGI [29]: 4.35 µM
- TGI [30]: > 78.6 µM
- TGI [31]: 4.83 µM
- TGI [32]: 4.99 µM
- TGI [33]: > 47.9 µM
- TGI [35]: 14 µM
- TGI [36]: > 100 µM
- TGI [37]: 12.2 µM
- TGI [39]: 59.4 µM
- TGI [40]: 21 µM
- TGI [41]: > 30.3 µM
- TGI [42]: 47.2 µM
- TGI [43]: > 100 µM
- TGI [44]: > 66.3 µM
- TGI [45]: 2.92 µM
- TGI [47]: 57.6 µM
- TGI [48]: 55.2 µM
- TGI [49]: 4.66 µM
- TGI [50]: 40.1 µM
- TGI [51]: 34.3 µM
- TGI [52]: 31.4 µM
- TGI [53]: 45.3 µM
- TGI [54]: 5.11 µM

SMILES: CN(C)c1ccc(/C=N/N=C2\C(=O)Nc3c(Cl)cc(Cl)cc32)cc1
- TGI [1]: > 100 µM
- TGI [2]: > 100 µM
- TGI [3]: > 100 µM
- TGI [4]: > 100 µM
- TGI [5]: 36.4 µM
- TGI [6]: > 100 µM
- TGI [7]: > 100 µM
- TGI [8]: > 100 µM
- TGI [9]: > 100 µM
- TGI [10]: > 100 µM
- TGI [11]: > 100 µM
- TGI [12]: > 100 µM
- TGI [13]: > 100 µM
- TGI [14]: 33 µM
- TGI [15]: > 100 µM
- TGI [16]: > 100 µM
- TGI [17]: > 100 µM
- TGI [18]: > 100 µM
- TGI [19]: > 100 µM
- TGI [20]: > 100 µM
- TGI [21]: > 100 µM
- TGI [22]: > 100 µM
- TGI [23]: > 100 µM
- TGI [24]: > 100 µM
- TGI [25]: > 100 µM
- TGI [26]: > 100 µM
- TGI [27]: > 100 µM
- TGI [28]: > 100 µM
- TGI [29]: > 100 µM
- TGI [30]: > 100 µM
- TGI [31]: > 100 µM
- TGI [32]: 33.8 µM
- TGI [33]: > 100 µM
- TGI [34]: > 100 µM
- TGI [35]: > 100 µM
- TGI [36]: > 100 µM
- TGI [37]: > 100 µM
- TGI [38]: > 100 µM
- TGI [39]: > 100 µM
- TGI [40]: > 100 µM
- TGI [41]: > 100 µM
- TGI [42]: > 100 µM
- TGI [43]: 89 µM
- TGI [44]: > 100 µM
- TGI [45]: > 100 µM
- TGI [46]: > 100 µM
- TGI [47]: > 100 µM
- TGI [48]: > 100 µM
- TGI [49]: > 100 µM
- TGI [50]: > 100 µM
- TGI [51]: > 100 µM
- TGI [52]: > 100 µM
- TGI [53]: > 100 µM
- TGI [54]: 56.9 µM
